Data published in PMC8841437 (Clinical and Translational Science, 2021).

Key:
Single ascending dose = assay type: in vivo, human; conditions: for increase in bioavailability by food intake: fed vs fasted; for AUC: AUC(0‐T); for AUC / Cmax: n = 6, geometric mean (geometric CV%); for Cmax: fed (high-fat breakfast)
Multiple ascending dose = conditions: for Tmax: median (min-max)
healthy participants = test: Safety and tolerability; assay type: in vivo, human; conditions: for Abdominal discomfort (TEAE) / Abdominal pain (TEAE) / Any TEAE / Diarrhea (TEAE) / Dizziness (TEAE) / Headache (TEAE) / Nausea (TEAE) / Oropharyngeal pain (TEAE) / Pain in extremity (TEAE): n = 6

In the case of `C[C@@H]1CCC[C@H](n2cnc(-c3cc(Cl)ccc3-n3cc(Cl)nn3)cc2=O)c2cc(ccn2)-c2c(cnn2C(F)F)NC1=O` [milvexian], the “increase in bioavailability by food intake” value (Single ascending dose; SAD 200-mg panel) is reported as ~ 1.4 fold, the “increase in bioavailability by food intake” value (Single ascending dose; SAD 500-mg panel) is reported as ~ 2 fold and the “mean T1/2 shortened when administered with food” value (Single ascending dose; SAD panels 4 and 6, fed vs fasted) is reported as 1.5 h. For the same compound, the “dose proportionality of Cmax and exposure” value (Single ascending dose; SAD, fasted, 20 to 200 mg) was “generally dose‐proportional”, the AUC (Single ascending dose; human, plasma, oral, 4 mg, SAD panel 1, 4 mg, fasted) was 125 ng·h/mL and the AUC (Single ascending dose; human, plasma, oral, 20 mg, SAD panel 2, 20 mg, fasted) was 1220 ng·h/mL. The AUC (Single ascending dose; human, plasma, oral, 60 mg, SAD panel 3, 60 mg, fasted) was 3790 ng·h/mL, the AUC (Single ascending dose; human, plasma, oral, 200 mg, SAD panel 4, 200 mg, fasted) was 12500 ng·h/mL and the AUC (Single ascending dose; human, plasma, oral, 200 mg, SAD panel 4, 200 mg, fed) was 17800 ng·h/mL. For the same compound, the Cmax (Single ascending dose; human, plasma, oral, 200 mg, SAD panel 4, 200 mg) was 1640 ng/mL, the AUC (Single ascending dose; human, plasma, oral, 300 mg, SAD panel 5, 300 mg, fasted) was 14600 ng·h/mL and the AUC (Single ascending dose; human, plasma, oral, 500 mg, SAD panel 6, 500 mg, fasted) was 21000 ng·h/mL. For the same compound, the AUC (Single ascending dose; human, plasma, oral, 500 mg, SAD panel 6, 500 mg, fed) was 44300 ng·h/mL, the Cmax (Single ascending dose; human, plasma, oral, 500 mg, SAD panel 6, 500 mg) was 3360 ng/mL and the half-life (Single ascending dose; human, plasma, oral, T1/2, range across all SAD panels, SAD, 4-500 mg) was 8.3 to 13.8 h. For the same compound, the Tmax (Single ascending dose; human, plasma, oral, Tmax, summary in discussion, rapid absorption) was 2 to 4 h, the “time to steady-state plasma concentration” value (Multiple ascending dose; MAD 5-mg q.d. panel, visual inspection of trough concentrations) was 1 dosing day and the “dose proportionality of increases in exposure” value (Multiple ascending dose; MAD day 14, 5-500 mg) was “greater than dose‐proportional”. For the same compound, the “time to steady-state plasma concentration” value (Multiple ascending dose; MAD, once-daily dosing) was no more than 3 dosing days, the AUC (Multiple ascending dose; human, in vivo, 5 mg, AUC(0‐T), MAD panel 7, 5 mg q.d. fasted, day 14, n = 5, geometric mean (geometric CV%)) was 146 ng·h/mL and the AUC (Multiple ascending dose; human, in vivo, 5 mg, AUC(TAU), MAD panel 7, 5 mg q.d. fasted, day 14, n = 5, geometric mean (geometric CV%)) was 146 ng·h/mL. The Cmax at 14 days (Multiple ascending dose; human, in vivo, 5 mg, Cmax, MAD panel 7, 5 mg q.d. fasted, day 14, n = 5, geometric mean (geometric CV%)) was 14.8 ng/mL, the Tmax (Multiple ascending dose; human, in vivo, 5 mg, MAD panel 7, 5 mg q.d. fasted, day 14, n = 5) was 2.03 h and the AUC (Multiple ascending dose; human, in vivo, 20 mg, AUC(0‐T), MAD panel 8, 20 mg q.d. fasted, day 14, n = 6, geometric mean (geometric CV%)) was 1660 ng·h/mL. For the same compound, the AUC (Multiple ascending dose; human, in vivo, 20 mg, AUC(TAU), MAD panel 8, 20 mg q.d. fasted, day 14, n = 6, geometric mean (geometric CV%)) was 1370 ng·h/mL, the Cmax at 14 days (Multiple ascending dose; human, in vivo, 20 mg, Cmax, MAD panel 8, 20 mg q.d. fasted, day 14, n = 6, geometric mean (geometric CV%)) was 171 ng/mL and the Tmax (Multiple ascending dose; human, in vivo, 20 mg, MAD panel 8, 20 mg q.d. fasted, day 14, n = 6) was 2.5 h. It also gave an AUC (Multiple ascending dose; human, in vivo, 70 mg, AUC(TAU), MAD panel 9, 70 mg q.d. fasted, day 14, n = 5, geometric mean (geometric CV%)) of 4220 ng·h/mL, a Cmax at 14 days (Multiple ascending dose; human, in vivo, 70 mg, Cmax, MAD panel 9, 70 mg q.d. fasted, day 14, n = 5, geometric mean (geometric CV%)) of 434 ng/mL and a Tmax (Multiple ascending dose; human, in vivo, 70 mg, MAD panel 9, 70 mg q.d. fasted, day 14, n = 5) of 3 h. It also gave an AUC (Multiple ascending dose; human, in vivo, 200 mg, AUC(0‐T), MAD panel 10, 200 mg q.d. fasted, day 14, n = 6, geometric mean (geometric CV%)) of 18900 ng·h/mL, an AUC (Multiple ascending dose; human, in vivo, 200 mg, AUC(TAU), MAD panel 10, 200 mg q.d. fasted, day 14, n = 6, geometric mean (geometric CV%)) of 14600 ng·h/mL and a Cmax at 14 days (Multiple ascending dose; human, in vivo, 200 mg, Cmax, MAD panel 10, 200 mg q.d. fasted, day 14, n = 6, geometric mean (geometric CV%)) of 1510 ng/mL. It also gave a Tmax (Multiple ascending dose; human, in vivo, 200 mg, MAD panel 10, 200 mg q.d. fasted, day 14, n = 6) of 3.5 h, an AUC (Multiple ascending dose; human, in vivo, 500 mg, AUC(0‐T), MAD panel 11, 500 mg q.d. fed, day 14, n = 6, geometric mean (geometric CV%)) of 142000 ng·h/mL and an AUC (Multiple ascending dose; human, in vivo, 500 mg, AUC(TAU), MAD panel 11, 500 mg q.d. fed, day 14, n = 6, geometric mean (geometric CV%)) of 95100 ng·h/mL. For the same compound, the Cmax (Multiple ascending dose; human, in vivo, 500 mg, Cmax, MAD panel 11, 500 mg q.d. fed, day 14, n = 6, geometric mean (geometric CV%)) was 7600 ng/mL, the Tmax (Multiple ascending dose; human, in vivo, 500 mg, MAD panel 11, 500 mg q.d. fed, day 14, n = 6) was 4 h and the half-life (Multiple ascending dose; human, in vivo, mean T1/2, range across MAD panels, MAD) was 11.4 to 18.1 h. The epistaxis (healthy participants; MAD 5-mg q.d. group) was “one participant”, the gingival bleeding (healthy participants; MAD 5-mg q.d. group, considered treatment-related, mild) was “one participant” and the petechia (healthy participants; MAD 70-mg q.d. group, considered treatment-related, mild) was “one participant”. The “Abdominal discomfort (TEAE)” value (healthy participants; MAD panel 7, 5 mg q.d. fasted) was 1 (16.7) n (%), the “Abdominal pain (TEAE)” value (healthy participants; MAD panel 7, 5 mg q.d. fasted) was 0 n (%) and the “Any TEAE” value (healthy participants; MAD panel 7, 5 mg q.d. fasted) was 4 (66.7) n (%). For the same compound, the “Diarrhea (TEAE)” value (healthy participants; MAD panel 7, 5 mg q.d. fasted) was 1 (16.7) n (%), the “Dizziness (TEAE)” value (healthy participants; MAD panel 7, 5 mg q.d. fasted) was 0 n (%) and the “Headache (TEAE)” value (healthy participants; MAD panel 7, 5 mg q.d. fasted) was 2 (33.3) n (%). For the same compound, the “Nausea (TEAE)” value (healthy participants; MAD panel 7, 5 mg q.d. fasted) was 0 n (%), the “Oropharyngeal pain (TEAE)” value (healthy participants; MAD panel 7, 5 mg q.d. fasted) was 0 n (%) and the “Pain in extremity (TEAE)” value (healthy participants; MAD panel 7, 5 mg q.d. fasted) was 0 n (%). For the same compound, the “discontinuation of treatment because of an AE (macular rash)” value (healthy participants; MAD panel 7, after one dose of 5 mg) was “one participant”, the “Abdominal discomfort (TEAE)” value (healthy participants; MAD panel 8, 20 mg q.d. fasted) was 0 n (%) and the “Abdominal pain (TEAE)” value (healthy participants; MAD panel 8, 20 mg q.d. fasted) was 0 n (%). The “Any TEAE” value (healthy participants; MAD panel 8, 20 mg q.d. fasted) was 1 (16.7) n (%), the “Diarrhea (TEAE)” value (healthy participants; MAD panel 8, 20 mg q.d. fasted) was 0 n (%) and the “Dizziness (TEAE)” value (healthy participants; MAD panel 8, 20 mg q.d. fasted) was 0 n (%). The “Headache (TEAE)” value (healthy participants; MAD panel 8, 20 mg q.d. fasted) was 1 (16.7) n (%), the “Nausea (TEAE)” value (healthy participants; MAD panel 8, 20 mg q.d. fasted) was 0 n (%) and the “Oropharyngeal pain (TEAE)” value (healthy participants; MAD panel 8, 20 mg q.d. fasted) was 0 n (%). For the same compound, the “Pain in extremity (TEAE)” value (healthy participants; MAD panel 8, 20 mg q.d. fasted) was 0 n (%), the “Abdominal discomfort (TEAE)” value (healthy participants; MAD panel 9, 70 mg q.d. fasted) was 1 (16.7) n (%) and the “Abdominal pain (TEAE)” value (healthy participants; MAD panel 9, 70 mg q.d. fasted) was 1 (16.7) n (%). The “Any TEAE” value (healthy participants; MAD panel 9, 70 mg q.d. fasted) was 5 (83.3) n (%), the “Diarrhea (TEAE)” value (healthy participants; MAD panel 9, 70 mg q.d. fasted) was 3 (50.0) n (%) and the “Dizziness (TEAE)” value (healthy participants; MAD panel 9, 70 mg q.d. fasted) was 1 (16.7) n (%). For the same compound, the “Headache (TEAE)” value (healthy participants; MAD panel 9, 70 mg q.d. fasted) was 2 (33.3) n (%), the “Nausea (TEAE)” value (healthy participants; MAD panel 9, 70 mg q.d. fasted) was 1 (16.7) n (%) and the “Oropharyngeal pain (TEAE)” value (healthy participants; MAD panel 9, 70 mg q.d. fasted) was 0 n (%). The “Pain in extremity (TEAE)” value (healthy participants; MAD panel 9, 70 mg q.d. fasted) was 1 (16.7) n (%).
